# Laboratory results taken from patent publication US20120322842A1, “HETEROCYCYL-SUBSTITUTED-ALKYLAMINOPHENYL DERIVATIVES, THEIR PREPARATION AND USE AS MEDICAMENTS” (LABORATORIOS DEL DR. ESTEVE, S.A., priority 2009, published 2012).
# Target: T1, Cloned Human Serotonin Receptor, Subtype 7 (h5HT7) (Homo sapiens, UniProt P34969)
# T1 construct: purchased PerkinElmer 6120512; host or cells: CHO cells
# Experiment: Radioligand binding assay, [125I]LSD, cloned human 5-HT7 receptor expressed in CHO cells (Flashplate)
# Conditions: not given
# Procedure: Radioligand binding assays were performed using the Cloned Human Serotonin Receptor, Subtype 7 (h5HT7), expressed in CHO cells, coated on Flashplate (Basic FlashPlate Cat.: SMP200) from PerkinElmer (Cat.: 6120512). The protocol assay was essentially the recommended protocol in the Technical Data Sheet by PerkinEmer Life and Analytical Sciences. The Mass membrane protein/well was typically […] and the Receptor/well was about 9-10 fmoles. The Flashplate were let equilibrate at room temperature for one hour before the addition of the components of the assay mixture. The binding buffer was: 50 mM Tris-HCl, pH 7.4, containing 10 mM MgCl2, 0.5 mM EDTA and 0.5% BSA. The radioligand was [^125I]LSD at a final concentration of 0.82 nM. Nonspecific binding was determined with 50 µM of Clozapine. The assay volume was 25 l. TopSeal-A were applied onto Flashplate microplates and they were incubated at room temperature for 240 minutes in darkness. The radioactivity were quantified by liquid scintillation spectrophotometry (Wallac 1450 Microbeta Trilux) with a count delay of 4 minutes prior to counting and a counting time of 30 seconds per well. Competition binding data were analyzed by using the LIGAND program (Munson and Rodbard, LIGAND: A versatile, computerized approach for characterization of ligandbinding systems. Anal. Biochem. 107: 220-239, 1980) and assays were performed in triplicate determinations for each point.
# T1 sequence (P34969 whole entry): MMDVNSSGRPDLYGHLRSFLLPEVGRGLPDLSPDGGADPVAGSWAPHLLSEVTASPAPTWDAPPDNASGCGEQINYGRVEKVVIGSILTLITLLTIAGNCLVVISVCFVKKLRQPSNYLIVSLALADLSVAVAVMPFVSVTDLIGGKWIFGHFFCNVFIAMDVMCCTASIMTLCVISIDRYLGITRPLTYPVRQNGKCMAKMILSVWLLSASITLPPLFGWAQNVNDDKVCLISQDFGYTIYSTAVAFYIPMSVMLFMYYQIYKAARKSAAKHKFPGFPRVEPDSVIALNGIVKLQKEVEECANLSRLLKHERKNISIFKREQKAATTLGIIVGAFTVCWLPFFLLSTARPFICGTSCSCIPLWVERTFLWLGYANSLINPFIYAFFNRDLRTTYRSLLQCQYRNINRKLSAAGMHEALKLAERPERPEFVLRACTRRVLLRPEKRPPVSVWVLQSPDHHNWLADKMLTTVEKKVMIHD
row,SMILES,Ki [nM]
1,"CCc1c(C)nn(C)c1-c1ccc(OC)c(CCN(C)C)c1 [Example 3, 2-(5-(4-ethyl-1,3-dimethyl-1H-pyrazol-5-yl)-2-methoxyphenyl)-N,N-dimethyl ethanamine]",599
2,"COc1ccc(-c2c(C)c(C)nn2C)cc1CCN(C)C [Example 9, 2-(2-methoxy-5-(1,3,4-trimethyl-1H-pyrazol-5-yl)phenyl)-N,N-dimethylethanamine]",113 ± 2.6
3,"CCn1nc(C)c(C)c1-c1ccc(OC)c(CCN(C)C)c1 [Example 28, 2-(5-(1-ethyl-3,4-dimethyl-1H-pyrazol-5-yl)-2-methoxyphenyl)-N,N-dimethyl ethanamine]",81.9
4,"COc1ccc(-c2c(C)c(C)nn2C(C)C)cc1CCN(C)C [Example 31, 2-(5-(1-isopropyl-3,4-dimethyl-1H-pyrazol-5-yl)-2-methoxyphenyl)-N,N-dimethyl ethanamine]",83.1

# Same assay, conditions: h5HT7 expressed in CHO cells; radioligand [125I]LSD 0.82 nM; nonspecific binding with clozapine; triplicate determinations; read-out: 5-HT7 Ki
row,SMILES,Ki [nM]
1,"CCc1c(C)nn(C)c1-c1cccc(CCN(C)C)c1 [Example 2, 2-(3-(4-ethyl-1,3-dimethyl-1H-pyrazol-5-yl)phenyl)-N,N-dimethylethanamine]",597
2,"CCc1c(C)nn(C)c1-c1ccc(O)c(CCN(C)C)c1 [Example 4, 2-(2-(dimethylamino)ethyl)-4-(4-ethyl-1,3-dimethyl-1H-pyrazol-5-yl)phenol]",577 ± 81.6
3,"Cc1nn(C)c(-c2cccc(CCN(C)C)c2)c1C [Example 8, N,N-dimethyl-2-(3-(1,3,4-trimethyl-1H-pyrazol-5-yl)phenyl)ethanamine]",261 ± 102
4,"Cc1nn(C)c(-c2ccc(O)c(CCN(C)C)c2)c1C [Example 10, 2-(2-(dimethylamino)ethyl)-4-(1,3,4-trimethyl-1H-pyrazol-5-yl)phenol]",102
5,"CNCCc1cc(-c2c(C)c(C)nn2C)ccc1O [Example 11, 2-(2-(methylamino)ethyl)-4-(1,3,4-trimethyl-1H-pyrazol-5-yl)phenol]",23.5 ± 5.2
6,"COc1ccc(-c2c(-c3ccccc3)c(C)nn2-c2ccccc2)cc1CCN(C)C [Example 19, 2-(2-methoxy-5-(3-methyl-1,4-diphenyl-1H-pyrazol-5-yl)phenyl)-N,N-dimethyl ethanamine]",447 ± 64.8
7,"COc1ccc(-c2c(C)c(C)nn2-c2ccccc2)cc1CCN(C)C [Example 22, 2-(5-(3,4-dimethyl-1-phenyl-1H-pyrazol-5-yl)-2-methoxyphenyl)-N,N-dimethyl ethanamine]",391
8,"Cc1nn(-c2ccccc2)c(-c2ccc(O)c(CCN(C)C)c2)c1C [Example 23, 4-(3,4-dimethyl-1-phenyl-1H-pyrazol-5-yl)-2-(2-(dimethylamino)ethyl)phenol]",611
9,"COc1ccc(-c2c3c(nn2-c2ccccc2)CCCC3)cc1CCN(C)C [Example 25, 2-(2-methoxy-5-(2-phenyl-4,5,6,7-tetrahydro-2H-indazol-3-yl)phenyl)-N,N-dimethyl ethanamine]",420
10,"CCn1nc(C)c(C)c1-c1ccc(O)c(CCN(C)C)c1 [Example 29, 2-(2-(dimethylamino)ethyl)-4-(1-ethyl-3,4-dimethyl-1H-pyrazol-5-yl)phenol]",102
11,"Cc1nn(C(C)C)c(-c2cccc(CCN(C)C)c2)c1C [Example 30, 2-(3-(1-isopropyl-3,4-dimethyl-1H-pyrazol-5-yl)phenyl)-N,N-dimethylethanamine]",300
12,"Cc1nn(C(C)C)c(-c2ccc(O)c(CCN(C)C)c2)c1C [Example 32, 2-(2-(dimethylamino)ethyl)-4-(1-isopropyl-3,4-dimethyl-1H-pyrazol-5-yl)phenol]",150
13,"Cc1nn(CC(F)(F)F)c(-c2cccc(CCN(C)C)c2)c1C [Example 33, 2-(3-(3,4-dimethyl-1-(2,2,2-trifluoroethyl)-1H-pyrazol-5-yl)phenyl)-N,N-dimethyl ethanamine]",527
14,"COc1ccc(-c2c(C)c(C)nn2CC(F)(F)F)cc1CCN(C)C [Example 34, 2-(5-(3,4-dimethyl-1-(2,2,2-trifluoroethyl)-1H-pyrazol-5-yl)-2-methoxyphenyl)-N,N-dimethyl ethanamine]",146
15,"Cc1nn(CC(F)(F)F)c(-c2ccc(O)c(CCN(C)C)c2)c1C [Example 35, 4-(3,4-dimethyl-1-(2,2,2-trifluoroethyl)-1H-pyrazol-5-yl)-2-(2-(dimethylamino)ethyl)phenol]",320
